The text below walks through data of patent publication US10323036B2 (Nimbus Lakshmi, Inc., priority 2016, dated 2019).

For this test, the target named is human TYK2 (JH2domain-pseudokinase) (Homo sapiens (Human), UniProt P29597). Description: TYK2 JH2 Domain Binding Assay (KINOMEscan). The following applies: Table 4, JH2 binding assay; read-out: JH2 Kd.

Molecules are shown by their SMILES.

Chain of human TYK2 (JH2domain-pseudokinase) (P29597 556-888): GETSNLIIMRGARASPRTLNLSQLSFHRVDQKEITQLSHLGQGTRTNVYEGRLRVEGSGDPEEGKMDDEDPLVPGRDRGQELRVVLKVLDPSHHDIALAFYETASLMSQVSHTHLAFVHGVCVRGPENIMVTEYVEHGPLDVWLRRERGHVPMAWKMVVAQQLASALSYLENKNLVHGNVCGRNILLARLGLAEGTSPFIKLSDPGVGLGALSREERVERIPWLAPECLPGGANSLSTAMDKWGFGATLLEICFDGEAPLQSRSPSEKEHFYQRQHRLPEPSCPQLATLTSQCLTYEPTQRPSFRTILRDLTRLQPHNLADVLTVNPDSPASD

What is called Kd is the constant that tells how readily two partners part at equilibrium. `COc1c(Nc2cc(Nc3ccc(C)cn3)nc3[nH]n(C)c(=O)c23)cccc1-c1nnn(C)n1` [Compound I-3, 4-((2-methoxy-3-(2-methyl-2H-tetrazol-5-yl)phenyl)amino)-2-methyl-6-((5-methylpyridin-2-yl)amino)-1,2-dihydro-3H-pyrazolo[3,4-b]pyridin-3-one]: the Kd is 0.1 to 0.5 nM.

Turning to `COc1c(Nc2cc(Nc3ccccn3)nc3[nH]n(C)c(=O)c23)cccc1-c1nnn(C)n1` [Compound I-4, 4-((2-methoxy-3-(2-methyl-2H-tetrazol-5-yl)phenyl)amino)-2-methyl-6-(pyridin-2-ylamino)-1,2-dihydro-3H-pyrazolo[3,4-b]pyridin-3-one], the Kd lay within 0.1 to 0.5 nM.

On to `COc1c(Nc2cc(Nc3cc(C)ccn3)nc3[nH]n(C)c(=O)c23)cccc1-c1nnn(C)n1` [Compound I-5, 4-((2-methoxy-3-(2-methyl-2H-tetrazol-5-yl)phenyl)amino)-2-methyl-6-((4-methylpyridin-2-yl)amino)-1,2-dihydro-3H-pyrazolo[3,4-b]pyridin-3-one], for which the dissociation constant (Kd) was above 10 nM.

On to `COc1c(Nc2cc(Nc3cc(CO)ccn3)nc3[nH]n(C)c(=O)c23)cccc1-c1nnn(C)n1` [Compound I-6, 6-((4-(hydroxymethyl)pyridin-2-yl)amino)-4-((2-methoxy-3-(2-methyl-2H-tetrazol-5-yl)phenyl)amino)-2-methyl-1,2-dihydro-3H-pyrazolo[3,4-b]pyridin-3-one], for which the Kd is above 10 nM.

Turning to `COc1c(Nc2cc(Nc3ccc(N4CCOCC4)cn3)nc3[nH]n(C)c(=O)c23)cccc1-c1nnn(C)n1` [Compound I-7, 4-((2-methoxy-3-(2-methyl-2H-tetrazol-5-yl)phenyl)amino)-2-methyl-6-((5-morpholinopyridin-2-yl)amino)-1,2-dihydro-3H-pyrazolo[3,4-b]pyridin-3-one], the Kd fell in the range of 1 to 10 nM.

On to `COc1c(Nc2cc(Nc3cc(C)c(F)cn3)nc3[nH]n(C)c(=O)c23)cccc1-c1nnn(C)n1` [Compound I-8, 6-((5-fluoro-4-methylpyridin-2-yl)amino)-4-((2-methoxy-3-(2-methyl-2H-tetrazol-5-yl)phenyl)amino)-2-methyl-1,2-dihydro-3H-pyrazolo[3,4-b]pyridin-3-one], for which the equilibrium dissociation constant (Kd) is below 0.1 nM.

On to `COc1c(Nc2cc(Nc3cc(C)nc(C)n3)nc3[nH]n(C)c(=O)c23)cccc1-c1nnn(C)n1` [Compound I-9, 6-((2,6-dimethylpyrimidin-4-yl)amino)-4-((2-methoxy-3-(2-methyl-2H-tetrazol-5-yl)phenyl)amino)-2-methyl-1,2-dihydro-3H-pyrazolo[3,4-b]pyridin-3-one], for which the dissociation constant Kd was below 0.1 nM.

On to `COc1c(Nc2cc(Nc3ccc(C)nn3)nc3[nH]n(C)c(=O)c23)cccc1-c1nnn(C)n1` [Compound I-10, 4-((2-methoxy-3-(2-methyl-2H-tetrazol-5-yl)phenyl)amino)-2-methyl-6-((6-methylpyridazin-3-yl)amino)-1,2-dihydro-3H-pyrazolo[3,4-b]pyridin-3-one], for which the dissociation constant (Kd) was below 0.1 nM.

In the case of `COc1c(Nc2cc(Nc3ccc(N4CCCCC4)cn3)nc3[nH]n(C)c(=O)c23)cccc1-c1nnn(C)n1` [Compound I-11, 4-((2-methoxy-3-(2-methyl-2H-tetrazol-5-yl)phenyl)amino)-2-methyl-6-((5-(piperidin-1-yl)pyridin-2-yl)amino)-1,2-dihydro-3H-pyrazolo[3,4-b]pyridin-3-one], the Kd was above 10 nM.

Take `COc1c(Nc2cc(Nc3ccc(C#N)cn3)nc3[nH]n(C)c(=O)c23)cccc1-c1nnn(C)n1` [Compound I-12, 6-((4-((2-methoxy-3-(2-methyl-2H-tetrazol-5-yl)phenyl)amino)-2-methyl-3-oxo-2,3-dihydro-1H-pyrazolo[3,4-b]pyridin-6-yl)amino)nicotinonitrile]: the Kd was below 0.1 nM.

Take `COc1c(Nc2cc(Nc3ccn(C)n3)nc3[nH]n(C)c(=O)c23)cccc1-c1nnn(C)n1` [Compound I-13, 4-((2-methoxy-3-(2-methyl-2H-tetrazol-5-yl)phenyl)amino)-2-methyl-6-((1-methyl-1H-pyrazol-3-yl)amino)-1,2-dihydro-3H-pyrazolo[3,4-b]pyridin-3-one]: the Kd was below 0.1 nM.

With `COCc1ccnc(Nc2cc(Nc3cccc(-c4ncn(C)n4)c3OC)c3c(=O)n(C)[nH]c3n2)c1` [Compound I-15, 4-((2-methoxy-3-(1-methyl-1H-1,2,4-triazol-3-yl)phenyl)amino)-6-((4-(methoxymethyl)pyridin-2-yl)amino)-2-methyl-1,2-dihydro-3H-pyrazolo[3,4-b]pyridin-3-one], the Kd lay within 0.1 to 0.5 nM.

On to `COc1c(Nc2cc(Nc3ccc(C)cn3)nc3[nH]n(C)c(=O)c23)cccc1-c1ncn(C)n1` [Compound I-16, 4-((2-methoxy-3-(1-methyl-1H-1,2,4-triazol-3-yl)phenyl)amino)-2-methyl-6-((5-methylpyridin-2-yl)amino)-1H-pyrazolo[3,4-b]pyridin-3(2H)-one], for which the equilibrium dissociation constant (Kd) fell in the range of 0.1 to 0.5 nM.

In the case of `COc1c(Nc2cc(Nc3ccccn3)nc3[nH]n(C)c(=O)c23)cccc1-c1ncn(C)n1` [Compound I-17, 4-((2-methoxy-3-(1-methyl-1H-1,2,4-triazol-3-yl)phenyl)amino)-2-methyl-6-(pyridin-2-ylamino)-1,2-dihydro-3H-pyrazolo[3,4-b]pyridin-3-one], the Kd is below 0.1 nM.

In the case of `COc1c(Nc2cc(Nc3cc(C)ccn3)nc3[nH]n(C)c(=O)c23)cccc1-c1ncn(C)n1` [Compound I-18, 4-((2-methoxy-3-(1-methyl-1H-1,2,4-triazol-3-yl)phenyl)amino)-2-methyl-6-((4-methylpyridin-2-yl)amino)-1,2-dihydro-3H-pyrazolo[3,4-b]pyridin-3-one], the Kd lay in the range of 0.1 to 0.5 nM.

Consider `COc1c(Nc2cc(Nc3cc(CO)ccn3)nc3[nH]n(C)c(=O)c23)cccc1-c1ncn(C)n1` [Compound I-19, 6-((4-(hydroxymethyl)pyridin-2-yl)amino)-4-((2-methoxy-3-(1-methyl-1H-1,2,4-triazol-3-yl)phenyl)amino)-2-methyl-1,2-dihydro-3H-pyrazolo[3,4-b]pyridin-3-one], for which the Kd lay within 1 to 10 nM.

On to `COc1c(Nc2cc(Nc3ccc(N4CCOCC4)cn3)nc3[nH]n(C)c(=O)c23)cccc1-c1ncn(C)n1` [Compound I-20, 4-((2-methoxy-3-(1-methyl-1H-1,2,4-triazol-3-yl)phenyl)amino)-2-methyl-6-((5-morpholinopyridin-2-yl)amino)-1,2-dihydro-3H-pyrazolo[3,4-b]pyridin-3-one], for which the Kd was in the range of 0.1 to 0.5 nM.

`COc1c(Nc2cc(Nc3cc(C)c(F)cn3)nc3[nH]n(C)c(=O)c23)cccc1-c1ncn(C)n1` [Compound I-21, 6-((5-fluoro-4-methylpyridin-2-yl)amino)-4-((2-methoxy-3-(1-methyl-1H-1,2,4-triazol-3-yl)phenyl)amino)-2-methyl-1,2-dihydro-3H-pyrazolo[3,4-b]pyridin-3-one]: the Kd was in the range of 0.1 to 0.5 nM.

For `COc1c(Nc2cc(Nc3cc(C)nc(C)n3)nc3[nH]n(C)c(=O)c23)cccc1-c1ncn(C)n1` [Compound I-22, 6-((2,6-dimethylpyrimidin-4-yl)amino)-4-((2-methoxy-3-(1-methyl-1H-1,2,4-triazol-3-yl)phenyl)amino)-2-methyl-1,2-dihydro-3H-pyrazolo[3,4-b]pyridin-3-one], the Kd lay in the range of 0.5 to 1 nM.

In the case of `COc1c(Nc2cc(Nc3ccc(C)nn3)nc3[nH]n(C)c(=O)c23)cccc1-c1ncn(C)n1` [Compound I-23, 4-((2-methoxy-3-(1-methyl-1H-1,2,4-triazol-3-yl)phenyl)amino)-2-methyl-6-((6-methylpyridazin-3-yl)amino)-1,2-dihydro-3H-pyrazolo[3,4-b]pyridin-3-one], the Kd is above 10 nM.

For the compound `COc1c(Nc2cc(Nc3ccc(N4CCCCC4)cn3)nc3[nH]n(C)c(=O)c23)cccc1-c1ncn(C)n1` [Compound I-24, 4-((2-methoxy-3-(1-methyl-1H-1,2,4-triazol-3-yl)phenyl)amino)-2-methyl-6-((5-(piperidin-1-yl)pyridin-2-yl)amino)-1,2-dihydro-3H-pyrazolo[3,4-b]pyridin-3-one], the dissociation constant Kd was 0.1 to 0.5 nM.

Take `COc1c(Nc2cc(Nc3ccc(C#N)cn3)nc3[nH]n(C)c(=O)c23)cccc1-c1ncn(C)n1` [Compound I-25, 6-((4-((2-methoxy-3-(1-methyl-1H-1,2,4-triazol-3-yl)phenyl)amino)-2-methyl-3-oxo-2,3-dihydro-1H-pyrazolo[3,4-b]pyridin-6-yl)amino)nicotinonitrile]: the Kd is 0.1 to 0.5 nM.

Regarding `COc1c(Nc2cc(Cl)nc3[nH]n(C)c(=O)c23)cccc1-c1nnn(C)n1` [Compound I-27], the dissociation constant (Kd) is above 10 nM.

Take `COc1c(Nc2cc(Nc3cccc(C#N)n3)nc3[nH]n(C)c(=O)c23)cccc1-c1nnn(C)n1` [Compound I-28, 6-((4-((2-methoxy-3-(2-methyl-2H-tetrazol-5-yl)phenyl)amino)-2-methyl-3-oxo-2,3-dihydro-1H-pyrazolo[3,4-b]pyridin-6-yl)amino)picolinonitrile]: the equilibrium dissociation constant (Kd) lay in the range of 1 to 10 nM.

Take `COc1c(Nc2cc(Nc3cc(C#N)ncn3)nc3[nH]n(C)c(=O)c23)cccc1-c1nnn(C)n1` [Compound I-29, 6-((4-((2-methoxy-3-(2-methyl-2H-tetrazol-5-yl)phenyl)amino)-2-methyl-3-oxo-2,3-dihydro-1H-pyrazolo[3,4-b]pyridin-6-yl)amino)pyrimidine-4-carbonitrile]: the Kd fell in the range of 0.1 to 0.5 nM.

In the case of `COc1c(Nc2cc(Nc3cccc(C#N)n3)nc3[nH]n(C)c(=O)c23)cccc1-c1ncn(C)n1` [Compound I-30, 6-((4-((2-methoxy-3-(1-methyl-1H-1,2,4-triazol-3-yl)phenyl)amino)-2-methyl-3-oxo-2,3-dihydro-1H-pyrazolo[3,4-b]pyridin-6-yl)amino)picolinonitrile], the Kd is above 10 nM.

Turning to `COc1c(Nc2cc(Nc3cc(C#N)ncn3)nc3[nH]n(C)c(=O)c23)cccc1-c1ncn(C)n1` [Compound I-31, 6-((4-((2-methoxy-3-(1-methyl-1H-1,2,4-triazol-3-yl)phenyl)amino)-2-methyl-3-oxo-2,3-dihydro-1H-pyrazolo[3,4-b]pyridin-6-yl)amino)pyrimidine-4-carbonitrile], the Kd was below 0.1 nM.
